The values that follow come from ChEMBL document CHEMBL1135641, “Antitumor agents. 217. Curcumin analogues as novel androgen receptor antagonists with potential as anti-prostate cancer agents” (J Med Chem, 2002).

Structures are written as SMILES.

The target of assay [1] is T1, Androgen receptor (Homo sapiens) (UniProt P10275).
T1 sequence (whole entry): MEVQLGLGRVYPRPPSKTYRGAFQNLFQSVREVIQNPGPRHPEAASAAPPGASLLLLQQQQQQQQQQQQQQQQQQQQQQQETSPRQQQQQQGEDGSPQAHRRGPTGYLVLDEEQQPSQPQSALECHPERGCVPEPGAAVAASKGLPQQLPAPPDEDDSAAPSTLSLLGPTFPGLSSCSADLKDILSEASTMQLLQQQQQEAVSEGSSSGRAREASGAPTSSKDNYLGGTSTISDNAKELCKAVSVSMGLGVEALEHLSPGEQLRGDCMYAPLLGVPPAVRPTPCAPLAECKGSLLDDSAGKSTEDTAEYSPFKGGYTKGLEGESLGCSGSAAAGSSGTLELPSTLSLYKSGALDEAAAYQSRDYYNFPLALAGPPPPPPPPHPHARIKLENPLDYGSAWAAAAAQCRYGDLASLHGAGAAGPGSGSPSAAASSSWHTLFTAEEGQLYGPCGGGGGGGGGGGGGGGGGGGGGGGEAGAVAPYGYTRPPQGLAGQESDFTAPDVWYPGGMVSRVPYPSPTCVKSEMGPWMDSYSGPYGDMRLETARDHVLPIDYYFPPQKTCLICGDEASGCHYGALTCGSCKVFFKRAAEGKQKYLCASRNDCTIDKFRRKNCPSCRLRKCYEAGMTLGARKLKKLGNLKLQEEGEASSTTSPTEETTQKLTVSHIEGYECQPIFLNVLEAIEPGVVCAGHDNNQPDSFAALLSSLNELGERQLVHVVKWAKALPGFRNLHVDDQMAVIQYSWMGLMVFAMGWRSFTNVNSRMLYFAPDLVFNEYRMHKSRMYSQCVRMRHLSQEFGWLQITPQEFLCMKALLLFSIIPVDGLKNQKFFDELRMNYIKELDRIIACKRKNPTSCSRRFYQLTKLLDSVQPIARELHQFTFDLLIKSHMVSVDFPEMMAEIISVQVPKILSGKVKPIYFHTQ
The experiment in a line: Antagonistic activity against Androgen receptor in DU-145 human prostate cancer cells. It is filed as functional, cell-based.

Assay [2] has as its target T1, Androgen receptor (Homo sapiens). The experiment in a line: Reduction in DHT-induced Androgen receptor activity.
Assay [3] has the same target. The experiment in a line: Antagonistic activity against Androgen receptor in PC-3 human prostate cancer cells. Type of assay: functional, cell-based.

For the compound `COC(=O)COc1ccc(/C=C/C(=O)/C=C(O)/C=C/c2ccc(OCC(=O)OC)c(OC)c2)cc1OC`, the Reduction in assay [1] came to 54%.

Take `COc1ccc(CCC(=O)CC(=O)CCc2ccc(OC)c(OC)c2)cc1OC`: in assay [2], the Reduction was found to be 18%.

`COc1ccc(/C=C/C(=O)/C=C(O)/C=C/c2ccc(OC)c(OC)c2)cc1OC`: the Reduction in assay [1] was found to be 45%; in assay [3], 70%.

Compound `COc1ccc(CCC(=O)CC(O)CCc2ccc(OC)c(OC)c2)cc1OC` (stereo unspecified) returned a Reduction in assay [2] of 18%.

Take `CCOC(O)=C(C(=O)/C=C/c1ccc(O)c(OC)c1)C(=O)/C=C/c1ccc(O)c(OC)c1`: the Reduction in assay [1] came out at 53.8%.
